{"source": "paper PMC10924921", "about": "“Mi-2β promotes immune evasion in melanoma by activating EZH2 methylation” (Nature Communications, 2024)", "test_in_all_cases": "biochemical", "design_in_all_cases": "KINOMEscan active-site competition binding panel (468 kinase assays), per cent of control at 1000 nM", "conditions_in_all_cases": "KINOMEscan per cent of control (binding competition); read-out: Percent Control", "key": {"[1]": {"molecular_target": "T1, ABL1(M351T)-phosphorylated (Homo sapiens, UniProt P00519, M351T)", "T1 construct": "phosphorylated", "text": "(§1) Figure S7 / Percent Control"}, "AMPK-alpha1": {"molecular_target": "T2, AMPK-alpha1 (Homo sapiens, UniProt Q13131)", "T2 construct": "gene PRKAA1", "text": "as §1"}, "CSNK1A1": {"molecular_target": "CSNK1A1 (Homo sapiens, UniProt P48729)", "text": "as §1"}, "DCAMKL1": {"molecular_target": "T3, DCAMKL1 (Homo sapiens, UniProt O15075)", "T3 construct": "gene DCLK1", "text": "as §1"}, "DMPK2": {"molecular_target": "T4, DMPK2 (Homo sapiens, UniProt Q6DT37)", "T4 construct": "gene CDC42BPG", "text": "as §1"}, "EGFR(S752-I759del)": {"molecular_target": "EGFR(S752-I759del) (Homo sapiens, UniProt P00533, DEL752-759)", "text": "as §1"}, "EGFR(T790M)": {"molecular_target": "EGFR(T790M) (Homo sapiens, UniProt P00533, T790M)", "text": "as §1"}, "EPHA4": {"molecular_target": "EPHA4 (Homo sapiens, UniProt P54764)", "sequence (P54764 whole entry)": "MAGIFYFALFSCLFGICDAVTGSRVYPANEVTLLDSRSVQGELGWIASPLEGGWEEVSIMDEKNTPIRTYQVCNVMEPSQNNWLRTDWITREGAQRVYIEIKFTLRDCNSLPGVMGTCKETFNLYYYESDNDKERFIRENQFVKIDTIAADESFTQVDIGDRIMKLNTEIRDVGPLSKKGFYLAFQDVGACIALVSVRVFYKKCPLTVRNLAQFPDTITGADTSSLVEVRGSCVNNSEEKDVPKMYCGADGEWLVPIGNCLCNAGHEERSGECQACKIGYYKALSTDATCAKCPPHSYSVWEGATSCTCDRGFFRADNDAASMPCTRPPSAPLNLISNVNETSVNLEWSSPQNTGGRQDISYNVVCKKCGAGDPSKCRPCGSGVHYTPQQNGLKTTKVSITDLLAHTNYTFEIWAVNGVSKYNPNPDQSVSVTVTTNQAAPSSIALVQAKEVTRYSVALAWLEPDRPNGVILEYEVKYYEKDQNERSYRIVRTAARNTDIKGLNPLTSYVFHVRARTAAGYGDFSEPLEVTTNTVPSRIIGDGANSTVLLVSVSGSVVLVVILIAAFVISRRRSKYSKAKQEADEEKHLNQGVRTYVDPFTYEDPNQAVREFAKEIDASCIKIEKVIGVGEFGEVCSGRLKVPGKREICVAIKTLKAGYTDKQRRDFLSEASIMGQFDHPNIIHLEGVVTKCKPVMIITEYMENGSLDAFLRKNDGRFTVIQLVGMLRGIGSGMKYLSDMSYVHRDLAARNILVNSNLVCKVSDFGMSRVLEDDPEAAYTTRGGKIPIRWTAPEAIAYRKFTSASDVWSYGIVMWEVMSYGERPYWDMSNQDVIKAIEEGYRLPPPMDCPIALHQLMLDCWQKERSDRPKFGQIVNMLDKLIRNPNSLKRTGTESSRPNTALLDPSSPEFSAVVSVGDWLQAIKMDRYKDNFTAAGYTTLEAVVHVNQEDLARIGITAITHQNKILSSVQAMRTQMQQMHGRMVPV", "text": "as §1"}, "EPHB4": {"molecular_target": "EPHB4 (Homo sapiens, UniProt P54760)", "sequence (P54760 whole entry)": "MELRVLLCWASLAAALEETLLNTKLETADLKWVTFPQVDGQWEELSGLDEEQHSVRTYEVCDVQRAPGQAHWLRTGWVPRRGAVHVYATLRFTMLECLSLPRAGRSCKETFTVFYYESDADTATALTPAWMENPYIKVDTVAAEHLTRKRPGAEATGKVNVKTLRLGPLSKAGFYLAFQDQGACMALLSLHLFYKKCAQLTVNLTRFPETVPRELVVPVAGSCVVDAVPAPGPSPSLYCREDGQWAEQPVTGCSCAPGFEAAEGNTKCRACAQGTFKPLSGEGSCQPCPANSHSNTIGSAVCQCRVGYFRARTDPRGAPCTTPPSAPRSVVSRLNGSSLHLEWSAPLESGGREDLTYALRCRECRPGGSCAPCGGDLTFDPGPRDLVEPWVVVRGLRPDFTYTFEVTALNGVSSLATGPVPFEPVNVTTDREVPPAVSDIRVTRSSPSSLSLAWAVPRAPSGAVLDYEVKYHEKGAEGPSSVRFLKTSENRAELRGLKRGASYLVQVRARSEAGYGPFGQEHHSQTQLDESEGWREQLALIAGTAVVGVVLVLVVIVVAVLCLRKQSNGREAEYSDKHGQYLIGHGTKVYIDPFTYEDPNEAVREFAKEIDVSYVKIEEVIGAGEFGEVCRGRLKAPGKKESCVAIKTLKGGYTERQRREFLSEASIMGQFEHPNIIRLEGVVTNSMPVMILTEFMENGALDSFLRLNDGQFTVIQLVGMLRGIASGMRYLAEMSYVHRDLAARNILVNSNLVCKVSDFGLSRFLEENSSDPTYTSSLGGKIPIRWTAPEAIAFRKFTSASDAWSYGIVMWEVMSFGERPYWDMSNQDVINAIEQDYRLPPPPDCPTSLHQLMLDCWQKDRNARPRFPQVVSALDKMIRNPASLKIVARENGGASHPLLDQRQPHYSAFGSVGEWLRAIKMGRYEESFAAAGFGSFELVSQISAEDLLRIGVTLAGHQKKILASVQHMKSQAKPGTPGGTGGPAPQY", "text": "as §1"}, "ERK3": {"molecular_target": "T5, ERK3 (Homo sapiens, UniProt Q16659)", "T5 construct": "gene MAPK6", "text": "as §1"}, "FLT3(R834Q)": {"molecular_target": "FLT3(R834Q) (Homo sapiens, UniProt P36888, R834Q)", "text": "as §1"}, "FRK": {"molecular_target": "FRK (Homo sapiens, UniProt P42685)", "text": "as §1"}, "IRAK3": {"molecular_target": "IRAK3 (Homo sapiens, UniProt Q9Y616)", "text": "as §1"}, "KIT": {"molecular_target": "KIT (Homo sapiens, UniProt P10721)", "text": "as §1"}, "LIMK2": {"molecular_target": "LIMK2 (Homo sapiens, UniProt P53671)", "sequence (P53671 whole entry)": "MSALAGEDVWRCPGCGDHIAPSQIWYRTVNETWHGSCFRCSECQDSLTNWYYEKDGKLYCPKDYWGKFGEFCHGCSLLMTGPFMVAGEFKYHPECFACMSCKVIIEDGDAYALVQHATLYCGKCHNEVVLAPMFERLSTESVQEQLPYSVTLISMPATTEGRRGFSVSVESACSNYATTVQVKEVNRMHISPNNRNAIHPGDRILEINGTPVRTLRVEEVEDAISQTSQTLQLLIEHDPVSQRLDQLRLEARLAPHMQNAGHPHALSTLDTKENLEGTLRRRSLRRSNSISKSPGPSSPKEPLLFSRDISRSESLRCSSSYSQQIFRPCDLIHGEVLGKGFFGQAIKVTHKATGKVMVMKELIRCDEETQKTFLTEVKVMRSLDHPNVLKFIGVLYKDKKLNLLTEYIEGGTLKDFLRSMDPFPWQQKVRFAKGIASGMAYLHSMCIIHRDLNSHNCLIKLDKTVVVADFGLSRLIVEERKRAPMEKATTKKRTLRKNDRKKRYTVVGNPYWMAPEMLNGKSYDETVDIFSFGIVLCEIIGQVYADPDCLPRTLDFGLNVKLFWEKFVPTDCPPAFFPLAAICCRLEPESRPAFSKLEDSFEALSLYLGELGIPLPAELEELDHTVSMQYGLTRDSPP", "text": "as §1"}, "MAP3K3": {"molecular_target": "MAP3K3 (Homo sapiens, UniProt Q99759)", "sequence (Q99759 whole entry)": "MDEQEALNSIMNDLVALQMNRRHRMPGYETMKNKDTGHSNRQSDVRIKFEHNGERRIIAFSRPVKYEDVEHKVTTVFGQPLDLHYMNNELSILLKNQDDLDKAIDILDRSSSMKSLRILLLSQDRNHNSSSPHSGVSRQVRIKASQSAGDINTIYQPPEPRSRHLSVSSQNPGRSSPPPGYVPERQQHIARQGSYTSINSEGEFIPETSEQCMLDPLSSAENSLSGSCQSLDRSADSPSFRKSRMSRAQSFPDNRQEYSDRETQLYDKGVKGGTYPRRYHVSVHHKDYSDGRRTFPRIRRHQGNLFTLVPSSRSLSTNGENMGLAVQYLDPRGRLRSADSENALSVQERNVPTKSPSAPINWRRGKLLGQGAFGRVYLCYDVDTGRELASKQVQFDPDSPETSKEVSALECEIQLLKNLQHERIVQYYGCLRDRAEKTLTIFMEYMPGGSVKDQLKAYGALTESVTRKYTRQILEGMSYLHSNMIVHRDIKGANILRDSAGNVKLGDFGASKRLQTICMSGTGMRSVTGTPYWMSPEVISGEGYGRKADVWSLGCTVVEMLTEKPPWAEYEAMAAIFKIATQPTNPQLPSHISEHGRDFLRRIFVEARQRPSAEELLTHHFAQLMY", "text": "as §1"}, "MEK4": {"molecular_target": "T6, MEK4 (Homo sapiens, UniProt P45985)", "T6 construct": "gene MAP2K4", "text": "as §1"}, "MST3": {"molecular_target": "T7, MST3 (Homo sapiens, UniProt Q9Y6E0)", "T7 construct": "gene STK24", "T7 sequence (Q9Y6E0 whole entry)": "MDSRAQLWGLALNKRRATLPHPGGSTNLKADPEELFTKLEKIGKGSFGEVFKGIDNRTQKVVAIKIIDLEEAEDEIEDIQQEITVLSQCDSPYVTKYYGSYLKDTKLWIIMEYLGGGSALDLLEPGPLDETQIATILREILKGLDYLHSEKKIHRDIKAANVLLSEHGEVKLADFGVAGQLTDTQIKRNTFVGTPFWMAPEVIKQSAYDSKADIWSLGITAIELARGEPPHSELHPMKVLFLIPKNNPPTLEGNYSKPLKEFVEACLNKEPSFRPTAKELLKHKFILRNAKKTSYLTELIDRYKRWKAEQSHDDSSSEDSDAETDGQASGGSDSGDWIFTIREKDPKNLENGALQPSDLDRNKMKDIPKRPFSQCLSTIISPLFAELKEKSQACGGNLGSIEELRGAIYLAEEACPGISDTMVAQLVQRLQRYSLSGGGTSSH", "text": "as §1"}, "MYLK4": {"molecular_target": "MYLK4 (Homo sapiens, UniProt Q86YV6)", "sequence (Q86YV6 whole entry)": "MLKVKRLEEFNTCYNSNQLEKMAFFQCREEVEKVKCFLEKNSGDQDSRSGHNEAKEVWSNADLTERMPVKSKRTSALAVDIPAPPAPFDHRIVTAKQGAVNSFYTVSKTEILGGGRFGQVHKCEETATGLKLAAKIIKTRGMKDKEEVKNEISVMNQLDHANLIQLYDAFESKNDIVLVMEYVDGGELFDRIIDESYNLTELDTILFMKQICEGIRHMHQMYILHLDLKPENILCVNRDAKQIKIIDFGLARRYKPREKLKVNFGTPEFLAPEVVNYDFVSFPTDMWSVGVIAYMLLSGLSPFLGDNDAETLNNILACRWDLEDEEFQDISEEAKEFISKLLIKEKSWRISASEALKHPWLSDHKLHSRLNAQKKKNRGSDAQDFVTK", "text": "as §1"}, "NEK4": {"molecular_target": "NEK4 (Homo sapiens, UniProt P51957)", "sequence (P51957 whole entry)": "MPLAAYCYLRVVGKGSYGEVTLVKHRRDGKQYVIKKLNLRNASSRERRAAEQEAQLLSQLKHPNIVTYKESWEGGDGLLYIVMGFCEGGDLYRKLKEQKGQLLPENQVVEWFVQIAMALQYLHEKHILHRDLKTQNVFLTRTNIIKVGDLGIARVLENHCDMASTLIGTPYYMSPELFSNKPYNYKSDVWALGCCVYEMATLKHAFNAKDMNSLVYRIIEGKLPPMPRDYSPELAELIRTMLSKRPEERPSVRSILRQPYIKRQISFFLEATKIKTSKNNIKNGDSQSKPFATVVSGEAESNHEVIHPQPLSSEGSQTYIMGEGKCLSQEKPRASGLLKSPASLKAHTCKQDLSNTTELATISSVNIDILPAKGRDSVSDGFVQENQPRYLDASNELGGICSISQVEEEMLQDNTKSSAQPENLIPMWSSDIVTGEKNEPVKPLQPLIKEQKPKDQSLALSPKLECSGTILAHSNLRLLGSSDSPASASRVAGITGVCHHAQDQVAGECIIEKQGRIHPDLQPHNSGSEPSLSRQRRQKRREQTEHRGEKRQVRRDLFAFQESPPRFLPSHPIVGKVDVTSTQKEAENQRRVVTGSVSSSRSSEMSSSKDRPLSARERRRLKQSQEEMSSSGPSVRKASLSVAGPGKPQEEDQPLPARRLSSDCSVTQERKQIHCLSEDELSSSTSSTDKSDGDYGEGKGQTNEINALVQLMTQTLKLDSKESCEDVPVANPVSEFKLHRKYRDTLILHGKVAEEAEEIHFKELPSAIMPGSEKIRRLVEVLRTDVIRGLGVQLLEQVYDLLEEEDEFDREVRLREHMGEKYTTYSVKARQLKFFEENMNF", "text": "as §1"}, "NIM1": {"molecular_target": "T8, NIM1 (Homo sapiens, UniProt Q8IY84)", "T8 construct": "gene NIM1K", "text": "as §1"}, "PHKG2": {"molecular_target": "PHKG2 (Homo sapiens, UniProt P15735)", "text": "as §1"}, "STK33": {"molecular_target": "STK33 (Homo sapiens, UniProt Q9BYT3)", "text": "as §1"}, "ULK1": {"molecular_target": "ULK1 (Homo sapiens, UniProt O75385)", "text": "as §1"}}}
{"smiles": "Cn1c(=O)[nH]c2ccc(-c3cccc(C(=O)NC4CCn5ccnc5C4)c3)cc21", "note": "(stereo not drawn) [Z36-MP5]", "values": [{"measurement": "remaining binding at 1 µM", "setting": "[1]", "value": 59, "unit": "%"}, {"measurement": "remaining binding at 1 µM", "setting": "AMPK-alpha1", "value": 92, "unit": "%"}, {"measurement": "remaining binding at 1 µM", "setting": "CSNK1A1", "value": 74, "unit": "%"}, {"measurement": "remaining binding at 1 µM", "setting": "DCAMKL1", "value": 53, "unit": "%"}, {"measurement": "remaining binding at 1 µM", "setting": "DMPK2", "value": 99, "unit": "%"}, {"measurement": "remaining binding at 1 µM", "setting": "EGFR(S752-I759del)", "value": 55, "unit": "%"}, {"measurement": "remaining binding at 1 µM", "setting": "EGFR(T790M)", "value": 44, "unit": "%"}, {"measurement": "remaining binding at 1 µM", "setting": "EPHA4", "value": 58, "unit": "%"}, {"measurement": "remaining binding at 1 µM", "setting": "EPHB4", "value": 84, "unit": "%"}, {"measurement": "remaining binding at 1 µM", "setting": "ERK3", "value": 90, "unit": "%"}, {"measurement": "remaining binding at 1 µM", "setting": "FLT3(R834Q)", "value": 40, "unit": "%"}, {"measurement": "remaining binding at 1 µM", "setting": "FRK", "value": 100, "unit": "%"}, {"measurement": "remaining binding at 1 µM", "setting": "IRAK3", "value": 99, "unit": "%"}, {"measurement": "remaining binding at 1 µM", "setting": "KIT", "value": 95, "unit": "%"}, {"measurement": "remaining binding at 1 µM", "setting": "LIMK2", "value": 96, "unit": "%"}, {"measurement": "remaining binding at 1 µM", "setting": "MAP3K3", "value": 55, "unit": "%"}, {"measurement": "remaining binding at 1 µM", "setting": "MEK4", "value": 84, "unit": "%"}, {"measurement": "remaining binding at 1 µM", "setting": "MST3", "value": 96, "unit": "%"}, {"measurement": "remaining binding at 1 µM", "setting": "MYLK4", "value": 93, "unit": "%"}, {"measurement": "remaining binding at 1 µM", "setting": "NEK4", "value": 69, "unit": "%"}, {"measurement": "remaining binding at 1 µM", "setting": "NIM1", "value": 72, "unit": "%"}, {"measurement": "remaining binding at 1 µM", "setting": "PHKG2", "value": 83, "unit": "%"}, {"measurement": "remaining binding at 1 µM", "setting": "STK33", "value": 92, "unit": "%"}, {"measurement": "remaining binding at 1 µM", "setting": "ULK1", "value": 51, "unit": "%"}]}
